Legend:
[1] = target: T1, Tyrosine Hydroxylase (Bos taurus, UniProt P17289); assay: Inhibition of tyrosine hydroxylase (TH); format: biochemical; conditions: for inhibition at 100 µg/mL: 100 mcg/cc; for inhibition at 200 µg/mL: 200 mcg/cc
T1 sequence (P17289 1-491): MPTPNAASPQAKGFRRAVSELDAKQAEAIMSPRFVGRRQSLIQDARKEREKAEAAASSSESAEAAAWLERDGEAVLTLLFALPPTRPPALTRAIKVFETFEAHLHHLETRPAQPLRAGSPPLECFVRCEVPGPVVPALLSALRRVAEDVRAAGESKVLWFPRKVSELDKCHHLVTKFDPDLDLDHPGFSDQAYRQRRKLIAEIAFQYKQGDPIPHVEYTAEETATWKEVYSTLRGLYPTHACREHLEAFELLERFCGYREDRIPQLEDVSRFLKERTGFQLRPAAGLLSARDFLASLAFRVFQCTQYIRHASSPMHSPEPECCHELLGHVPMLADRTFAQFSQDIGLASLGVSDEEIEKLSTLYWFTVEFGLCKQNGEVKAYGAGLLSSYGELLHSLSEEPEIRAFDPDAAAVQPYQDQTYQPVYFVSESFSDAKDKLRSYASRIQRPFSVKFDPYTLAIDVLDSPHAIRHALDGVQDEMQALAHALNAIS
Excerpt: (§1) The new compounds of the present invention have been examined for their biological activities, and their inhibition to tyrosine hydroxylase and dopamine β-hydroxylase are summarized below in Table 2. The details of the test methods used and the close relationship and reliable correlation of biological activities between in vitro and in vivo test results are well documented in the literature, e.g. J. Antibiot. 23: 514 (1970); Biochem. Pharmacol., 19: 35 (1970); and J. Am. Chem. Soc. 93: 1285 (1971). […] The effects of this compound on tyrosine hydroxylase and dopamine β-hydroxylase were also tested by the methods described in the Journal of Antibiotics 23:514 (1970) and Biochem. Pharmacol. 19:35 (1970), respectively.
(§2) The chemical structure of the products [I], solvent for hydrogenation and solvent for recrystallization are summarised in Table 1, and the yields of the products [I] are also shown in Table 1 together with their melting points, elemental analysis data, Inhibition (%) of tyrosine hydroxylase (TH) and Inhibition (%) to dopamine β-hydroxylase (DH) at different concentrations of the products [I] of 100 mcg/cc and 200 mcg/cc.

[2] = target: T2, Dopamine β-Hydroxylase (Bos taurus, UniProt P15101); assay: Inhibition of dopamine β-hydroxylase (DH); format: biochemical; conditions: 200 mcg/cc
T2 sequence (P15101 1-610): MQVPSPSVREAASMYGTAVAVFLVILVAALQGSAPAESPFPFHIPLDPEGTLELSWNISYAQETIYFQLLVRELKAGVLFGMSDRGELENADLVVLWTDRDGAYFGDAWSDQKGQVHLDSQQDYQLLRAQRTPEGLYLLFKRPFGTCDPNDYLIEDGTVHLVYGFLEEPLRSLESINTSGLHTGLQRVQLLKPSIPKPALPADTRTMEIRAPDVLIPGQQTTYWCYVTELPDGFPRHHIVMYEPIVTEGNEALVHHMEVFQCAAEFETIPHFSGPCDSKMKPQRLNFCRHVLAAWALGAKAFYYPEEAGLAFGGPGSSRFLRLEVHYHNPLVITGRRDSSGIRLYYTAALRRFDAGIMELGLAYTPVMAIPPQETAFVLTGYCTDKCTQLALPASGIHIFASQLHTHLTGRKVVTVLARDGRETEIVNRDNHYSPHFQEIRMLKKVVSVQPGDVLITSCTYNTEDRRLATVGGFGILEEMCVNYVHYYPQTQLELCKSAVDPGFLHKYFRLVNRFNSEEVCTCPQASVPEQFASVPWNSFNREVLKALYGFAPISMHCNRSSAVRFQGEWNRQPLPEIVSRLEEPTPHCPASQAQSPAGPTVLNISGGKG
Excerpt: as §1, §2

SMILES: COc1ccc(CCC(=O)C2C(=O)C=C(C)OC2=O)cc1 (centres unmarked) [Example 1, 3-(4-methoxyhydrocinnamoyl)-6-methyl-2H-pyran-2,4(3H)-dione]
- inhibition at 100 µg/mL [1]: 40.7%
- inhibition at 200 µg/mL [1]: 47.9%
- inhibition at 200 µg/mL [2]: 35%

SMILES: COc1ccc(CCC(=O)C2C(=O)C=C(C)OC2=O)cc1O (centres unmarked) [Example 2, 3-(3-hydroxy-4-methoxyhydrocinnamoyl)-6-methyl-2H-pyran-2,4(3H)-dione]
- inhibition at 100 µg/mL [1]: 80.8%
- inhibition at 200 µg/mL [1]: 93.9%
- inhibition at 200 µg/mL [2]: 67%

SMILES: CC1=CC(=O)C(C(=O)CCc2ccc3c(c2)OCO3)C(=O)O1 (centres unmarked) [Example 3, 3-(3,4-methylenedioxyhydrocinnamoyl)-6-methyl-2H-pyran-2,4(3H)-dione]
- inhibition at 100 µg/mL [1]: 13.7%
- inhibition at 200 µg/mL [1]: 18.5%
- inhibition at 200 µg/mL [2]: 86.7%

SMILES: CC1=CC(=O)C(C(=O)CCc2cccc(O)c2)C(=O)O1 (centres unmarked) [Example 4]
- inhibition at 100 µg/mL [1]: 64.7%
- inhibition at 200 µg/mL [1]: 67.2%
- inhibition at 200 µg/mL [2]: 81.7%

SMILES: CC1=CC(=O)C(C(=O)CCc2ccc(Cl)cc2)C(=O)O1 (centres unmarked) [Example 5]
- inhibition at 100 µg/mL [1]: 66%
- inhibition at 200 µg/mL [1]: 64.8%
- inhibition at 200 µg/mL [2]: 84.4%

SMILES: CC1=CC(=O)C(C(=O)CCc2ccc(Cl)c(Cl)c2)C(=O)O1 (centres unmarked) [Example 6]
- inhibition at 100 µg/mL [1]: 54.6%
- inhibition at 200 µg/mL [1]: 61%
- inhibition at 200 µg/mL [2]: 90.4%

SMILES: CC1=CC(=O)C(C(=O)CCc2ccc(O)cc2)C(=O)O1 (centres unmarked) [Example 7]
- inhibition at 100 µg/mL [1]: 65.2%
- inhibition at 200 µg/mL [1]: 70.6%
- inhibition at 200 µg/mL [2]: 77.7%

SMILES: CC1=CC(=O)C(C(=O)CCc2ccc(C#N)cc2)C(=O)O1 (centres unmarked) [Example 8]
- inhibition at 100 µg/mL [1]: 81.4%
- inhibition at 200 µg/mL [1]: 84.5%
- inhibition at 200 µg/mL [2]: 77.5%

SMILES: CC1=CC(=O)C(C(=O)CCc2ccc(O)c(O)c2)C(=O)O1 (centres unmarked) [Example 9]
- inhibition at 100 µg/mL [1]: 80.6%
- inhibition at 200 µg/mL [1]: 93.5%
- inhibition at 200 µg/mL [2]: 20.6%

SMILES: CC1=CC(=O)C(C(=O)CCc2cccc(Cl)c2)C(=O)O1 (centres unmarked) [Example 10]
- inhibition at 100 µg/mL [1]: 12.7%
- inhibition at 200 µg/mL [1]: 26.5%
- inhibition at 200 µg/mL [2]: 95%

SMILES: CCOc1ccc(CCC(=O)C2C(=O)C=C(C)OC2=O)cc1 (centres unmarked) [Example 11]
- inhibition at 200 µg/mL [1]: 10.1%
- inhibition at 200 µg/mL [2]: 6%

SMILES: CC1=CC(=O)C(C(=O)CCCCc2ccccc2)C(=O)O1 (centres unmarked) [Example 12]
- inhibition at 100 µg/mL [1]: 33.7%
- inhibition at 200 µg/mL [2]: 85.8%

SMILES: CC1=CC(=O)C(C(=O)CCc2ccccc2O)C(=O)O1 (centres unmarked) [Example 13]
- inhibition at 100 µg/mL [1]: 44.4%
- inhibition at 200 µg/mL [1]: 59.5%
- inhibition at 200 µg/mL [2]: 52.5%

SMILES: COC(=O)c1ccc(CCC(=O)C2C(=O)C=C(C)OC2=O)cc1 (centres unmarked) [Example 14, 3-(4-methoxycarbonylhydrocinnamoyl)-6-methyl-2H-pyran-2,4(3H)-dione]
- inhibition at 100 µg/mL [1]: 13%
- inhibition at 200 µg/mL [1]: 15%
- inhibition at 200 µg/mL [2]: 54.9%

SMILES: COc1cccc(CCC(=O)C2C(=O)C=C(C)OC2=O)c1O (centres unmarked) [Example 15]
- inhibition at 100 µg/mL [1]: 20.9%
- inhibition at 200 µg/mL [1]: 29.9%

SMILES: CC1=CC(=O)C(C(=O)CCc2ccc(N(C)C)cc2)C(=O)O1 (centres unmarked) [Example 16]
- inhibition at 100 µg/mL [1]: 23%
- inhibition at 200 µg/mL [1]: 26.1%

SMILES: CC1=CC(=O)C(C(=O)CCc2ccccc2Cl)C(=O)O1 (centres unmarked) [Example 17]
- inhibition at 100 µg/mL [1]: 37.1%
- inhibition at 200 µg/mL [1]: 48.4%
- inhibition at 200 µg/mL [2]: 89.8%

SMILES: COc1ccccc1CCC(=O)C1C(=O)C=C(C)OC1=O (centres unmarked) [Example 18]
- inhibition at 100 µg/mL [1]: 32%
- inhibition at 200 µg/mL [2]: 98.3%

SMILES: COc1cc(CCC(=O)C2C(=O)C=C(C)OC2=O)ccc1O (centres unmarked) [Example 19]
- inhibition at 100 µg/mL [1]: 14.6%
- inhibition at 200 µg/mL [1]: 26%
- inhibition at 200 µg/mL [2]: 29.6%

SMILES: CC1=CC(=O)C(C(=O)CCc2ccc(C(C)C)cc2)C(=O)O1 (centres unmarked) [Example 20]
- inhibition at 100 µg/mL [1]: 16.8%
- inhibition at 200 µg/mL [1]: 25.5%
- inhibition at 200 µg/mL [2]: 94.5%

SMILES: COc1cccc(CCC(=O)C2C(=O)C=C(C)OC2=O)c1OC (centres unmarked) [Example 21]
- inhibition at 100 µg/mL [1]: 39%
- inhibition at 200 µg/mL [2]: 74.7%

SMILES: CCOc1cc(CCC(=O)C2C(=O)C=C(C)OC2=O)ccc1O (centres unmarked) [Example 22]
- inhibition at 100 µg/mL [1]: 22.7%
- inhibition at 200 µg/mL [1]: 24.4%
- inhibition at 200 µg/mL [2]: 61.5%

SMILES: CC1=CC(=O)C(C(=O)CCc2c(C)cc(C)cc2C)C(=O)O1 (centres unmarked) [Example 23]
- inhibition at 100 µg/mL [1]: 8.7%
- inhibition at 200 µg/mL [2]: 28.9%

SMILES: CC1=CC(=O)C(C(=O)CCc2ccco2)C(=O)O1 (centres unmarked) [Example 24, 3-[3-(2-furyl)propanoyl]-6-methyl-2H-pyran-2,4(3H)-dione]
- inhibition at 100 µg/mL [1]: 44.7%
- inhibition at 200 µg/mL [1]: 45.5%
- inhibition at 200 µg/mL [2]: 60.3%

SMILES: COc1cccc(CCC(=O)C2C(=O)C=C(C)OC2=O)c1 (centres unmarked) [Example 25]
- inhibition at 100 µg/mL [1]: 32%
- inhibition at 200 µg/mL [1]: 34.9%
- inhibition at 200 µg/mL [2]: 83.5%

SMILES: CC1=CC(=O)C(C(=O)CCc2cccc(Br)c2)C(=O)O1 (centres unmarked) [Example 26]
- inhibition at 100 µg/mL [1]: 11.3%
- inhibition at 200 µg/mL [1]: 19.8%
- inhibition at 200 µg/mL [2]: 97%

SMILES: COc1ccc(CCC(=O)C2C(=O)C=C(C)OC2=O)c(OC)c1 (centres unmarked) [Example 27]
- inhibition at 100 µg/mL [1]: 20%
- inhibition at 200 µg/mL [1]: 26%
- inhibition at 200 µg/mL [2]: 44.9%

SMILES: CC1=CC(=O)C(C(=O)CCc2ccc(Cl)cc2Cl)C(=O)O1 (centres unmarked) [Example 28]
- inhibition at 100 µg/mL [1]: 29.8%
- inhibition at 200 µg/mL [1]: 29.1%
- inhibition at 200 µg/mL [2]: 100%

SMILES: CC1=CC(=O)C(C(=O)CCc2ccc(C)cc2)C(=O)O1 (centres unmarked) [Example 29, 3-(4-methylhydrocinnamoyl)-6-methyl-2H-pyran-2,4(3H)-dione]
- inhibition at 100 µg/mL [1]: 52.5%
- inhibition at 200 µg/mL [1]: 52.6%
- inhibition at 200 µg/mL [2]: 85%

SMILES: CC1=CC(=O)C(C(=O)CCc2ccc(C)o2)C(=O)O1 (centres unmarked) [Example 30]
- inhibition at 100 µg/mL [1]: 23.5%
- inhibition at 200 µg/mL [2]: 100%

SMILES: CC1=CC(=O)C(C(=O)CCc2ccc(F)cc2)C(=O)O1 (centres unmarked) [Example 31]
- inhibition at 100 µg/mL [1]: 60.1%
- inhibition at 200 µg/mL [2]: 42%

SMILES: CC1=CC(=O)C(C(=O)CCc2ccc(C(F)(F)F)cc2)C(=O)O1 (centres unmarked) [Example 32]
- inhibition at 100 µg/mL [1]: 50.4%
- inhibition at 200 µg/mL [2]: 88%

SMILES: CC1=CC(=O)C(C(=O)CCc2ccc(C(N)=O)cc2)C(=O)O1 (centres unmarked) [Example 33]
- inhibition at 100 µg/mL [1]: 20.5%
- inhibition at 200 µg/mL [2]: 30.3%

SMILES: CC1=CC(=O)C(C(=O)CCc2cc(Cl)cc(Cl)c2O)C(=O)O1 (centres unmarked) [Example 34]
- inhibition at 100 µg/mL [1]: 53.6%
- inhibition at 200 µg/mL [1]: 69.3%
- inhibition at 200 µg/mL [2]: 82.3%

SMILES: COc1cc(CCC(=O)C2C(=O)C=C(C)OC2=O)cc(OC)c1O (centres unmarked) [Example 35]
- inhibition at 100 µg/mL [1]: 45.8%
- inhibition at 200 µg/mL [2]: 43.6%

SMILES: CC1=CC(=O)C(C(=O)CCc2cccc3ccccc23)C(=O)O1 (centres unmarked) [Example 36]
- inhibition at 100 µg/mL [1]: 34.8%
- inhibition at 200 µg/mL [2]: 56.2%

Source: patent US3963756A, “Derivatives of 6-methyl-2H-pyran-2,4(3H)-dione” (Zaidan Hojin Biseibutsu Kagaku Kenkyu Kai, priority 1972, dated 1976)
